“Also recorded” adds a separate entry of the source.
Columns and labels:
[1] = tested on: 9L rat glioblastoma cells; experiment: Cell viability assay (MTS) in 9L rat glioblastoma cells; type: cell-based
Experimental: (§1) T98G glioblastoma cells were obtained from ATCC and cultured at 37° C. 10% CO2 in Dulbecco's Modified Eagles Medium supplemented with 10% newborn calf serum. 9L rat glioblastoma cells were obtained from Carol Cruse (University of Colorado) and cultured at 37° C. in 10% CO2 in Dulbecco's Modified Eagles Medium supplemented with 10% fetal Calf serum. The T98G-LHCmjun clone (termed T98G mutant jun or T98G-mjun), as well as control empty vector modified clone (termed T98GLHCX) were obtained from Dr. Dan Mercola (Sidney Kimmel Cancer Center) and were cultured in the same way as were T98G cells except that 100 μg/ml hygromycin was added to the culture medium. The 98G-mjun is stably modified to express a dominant negative mutant of c-jun (the mutant was obtained by site-directed mutagenesis by M. Karin and colleagues and is described by Smeal et al. (1991). Mutant jun has ser→ala substitutions at positions 63 and 73, two sites of DNA damage-induced phosphorylation, and can therefore not be phosphorylated at these sites. 9LpCEPp53 (or 9LpCEP4, control) were cultured in the same way at 9L cells except that 50 μg/ml hygromycin was added to the medium.
Rat 9L glioblastoma cells express p53 mutated at codon 277 (J. Neuroonal. 19:259-268, 1994.) 9LpCEPp53 (or 9LpCEP4) were obtained by transducing 5×10^5 9L cells with 15 μG of pCEPp53 (or pCEP4) using Lipofectamine (GIBCO/BRL, Gaithersberg, Md.) following the manufacturer's instructions. Clones were selected in 50 μg/ml hygromycin and characterized for wild-type p53 expression by immunoprecipitation (immunoprecipitation procedure described in: Gjerset et al., Molec. Carcinog. 5:190-198, 1992) using the 1801 anti-p53 antibody specific for human p53 (p-Ab-2, Oncogene Science, Uniondale, N.Y.), and by the PG13 functional assay described above. pCEPp53 was derived by inserting the human wild-type p53 cDNA into the multicloning site of pCEP4.
(§2) Cells were infected when they were at 80% confluence with either 100 pfu per cell overnight in DMEM containing 2% heat-inactivated FBS (for T98G and clones derived from T98G) or at 50 pfu per cell for 2 hours (9L cells). The efficiency of infection was determined by staining a sample of the β-gal virus-infected cells at 48 hrs post-infection as described (Dannenerg and Saga, 1981).
(§3) Viability assays were performed in 96 wells plates 6-7 days after plating. Cells were plated at a starting cell number per well of 1000. Triplicate or quadruplicate wells were set up for each assay point. […] For cisplatin treatment, triplicate or quadruplicate wells were exposed for 1 hour to various concentrations of cisplatin (Platinol™), and then incubated in the absence of cisplatin for 7 days, during which time control (untreated) wells were in exponential phase growth. Viable cell number was based on the bioconversion of the tetrazolium compound, MTS, into formazan (Promega, Celltiter96™Aqeous), as determined by absorbance at […] using an ELISA reader. For 3-aminobenzamide (ABZ) treatment, triplicate or quadruplicate wells were treated with either 5 mM ABZ or 10 mM ABX. Fresh ABZ was added every two days and viability was scored as described above at 6 days. Assays involving the synthetic retinoid SR11220 were performed in the presence of charcoal-treated fetal bovine serum. Medium was replaced every two days with medium containing fresh retinoid.

T98G parental cells = experiment: PCR stop assay for DNA damage (2.7 Kb HPRT fragment) in T98G parental cells; type: cell-based, human
Experimental: (§4) This assay has been described (Oshita and Saijo, 1994; Jannerwein and Eastman, 1991). The assay is based on the principle that every DNA lesion, including adducts produced by cisplatin, can potentially block the progression of the Taq polymerase and decrease the yield of a given PCR™ product. […] Furthermore, when whole cells are incubated with varying levels of cisplatin, the degree of inhibition of amplification of a specific PCR™ product from DNA purified from these cells, correlates closely with the amount of DNA damage (level of DNA platination) as measured by atomic adsorption (Jannerwein and Eastman, 1991). The following primers (used by Oshita and Saijo, 1994) which amplify a 2.7 Kb fragment of the human hypoxanthine phosphoribosyl transferase (HPRTase) gene were used:
(§5) As an internal control for the efficiency of the PCR™ reaction, a nested 5′ primer which amplifies a 150 bp fragment of the same gene was used:
At the cisplatin levels used to treat the cells, damage to the smaller fragment is undetectable. […] In some experiments, 3-aminobenzamide (10 mM), an inhibitor of ADP ribosylation and DNA repair (see Din et al., 1992) was added during the 6 hour recovery period. […] DNA was washed with 70% EtOH to remove salt, followed by 100% EtOH dried briefly, and resuspended at 1 mg/ml in sterile H2O. Quantitative PCR™ was performed in 50 μl aliquots using 0.5 μg DNA, 50 pmol of forward primer for 2.7 Kb fragment, 50 pmol reverse primer, and 5 pmol of forward primer for the 150 base fragment, 50 mM KCL, 10 nmM Tris pH 8.3, 1.5 mM MgCl2, […], 0.5 μl Tac polymerasse (Perkin Elmer), and 1 pmol radioactively end-labeled reverse primer (labeled with y-^32P-dATP). Amplification conditions were as follows: 1 cycle: 94° C., 1′30; 25 cycles: 94° (1 min)-57° (1 min)-70° (2′30″); 1 cycle:94° (1 min)-57° (1 min)-70° (7′). […] The gel was vacuum-dried for two hours onto filter paper and the PCR™-amplified 2.7 Kb and 150 bp bands were quantitated using an Ambis4000 Radioanalytic Imaging system (Ambis, Inc., San Diego, Calif.).

T47D breast cancer cells = experiment: Cell viability assay (MTS) in T47D breast cancer cells; type: cell-based; conditions: for cell viability: one hour cisplatin, various concentrations, 7 days post-infection; for viability: 7 days
Experimental: Cells were infected when they were at 80% confluence with either 100 pfu per cell overnight in DMEM containing 2% heat-inactivated FBS (for T98G and clones derived from T98G) or at 50 pfu per cell for 2 hours (9L cells).
as §3

T98G-mutant jun cells = experiment: PCR stop assay for DNA damage (2.7 Kb HPRT fragment) in T98G-mutant jun cells; type: cell-based, human; conditions: varying concentrations
Experimental: as §4, §5
At the cisplatin levels used to treat the cells, damage to the smaller fragment is undetectable. […] In some experiments, 3-aminobenzamide (10 mM), an inhibitor of ADP ribosylation and DNA repair (see Din et al., 1992) was added during the 6 hour recovery period. […] The gel was vacuum-dried for two hours onto filter paper and the PCR™-amplified 2.7 Kb and 150 bp bands were quantitated using an Ambis4000 Radioanalytic Imaging system (Ambis, Inc., San Diego, Calif.).

T98G glioblastoma cells = experiment: Cell viability assay (MTS) in T98G glioblastoma cells; type: cell-based; conditions: for cell viability: 7 days post-treatment
Experimental: as §1, §2, §3

SMILES	viability ([1]; 9L cells stably expressing human wild-type p53 (pCEPp53), 5 mM 3-aminobenzamide for 6 days)	viability ([1]; 9L cells stably expressing human wild-type p53 (pCEPp53), 10 mM 3-aminobenzamide for 6 days)	growth inhibition ([1]; 9L cells stably expressing only control vector pCEP4, both 5 mM and 10 mM 3-aminobenzamide, 6 days)	DNA damage (percentage of control PCR signal) (T98G parental cells; 10 mM 3-aminobenzamide, six hours post treatment with varying concentrations of cisplatin)	cell viability (T47D breast cancer cells; T47D cells infected with wild-type p53 adenovirus, two days post-infection)	viability (T47D breast cancer cells; T47D cells infected with βgal adenovirus control, 10^−8 M SR11220, 10 μM cisplatin or combination)	cell viability (T47D breast cancer cells; control T47D cells infected with βgal-adenovirus)	viability (T47D breast cancer cells; p53 adenovirus infected T47D cells, 10 μM cisplatin, 1 hour exposure)	repair of DNA damage (T98G-mutant jun cells; six hours after 1.5 hours cisplatin)	DNA damage (percentage of control PCR signal) (T98G-mutant jun cells; zero hour after 1.5 hours cisplatin)	cell growth / viability (T98G glioblastoma cells; T98G cells infected with wild-type p53 adenovirus, one hour cisplatin, various concentrations, 7 days post-infection)	growth rate (T98G glioblastoma cells; T98G cells infected with βgal adenovirus, increasing levels of cisplatin, 7 days post-infection)	cell viability (T98G glioblastoma cells; T98G cells stably modified with wild-type p53 vector pLp53RNL, one hour cisplatin, increasing doses)	cell viability (T98G glioblastoma cells; control T98G cells stably modified with vector only, pLNRL, one hour cisplatin)	viability ([1]; 9L cells infected with p53 adenovirus, compared to βgal adenovirus, 50 μM cisplatin one day later, measured seven days after cisplatin)	cell viability ([1]; 9L cells stably modified with wild-type p53 vector pCEPp53, compared to control vector pCEP4, one hour cisplatin, various concentrations, 7 days post-treatment)	DNA damage (percentage of control PCR signal) (T98G parental cells; six hours after 1.5 hour cisplatin treatment, no 3-aminobenzamide)	DNA damage (percentage of control PCR signal) (T98G parental cells; zero hours after 1.5 hour treatment with varying concentrations of cisplatin)
NC(=O)c1cccc(N)c1 [3-aminobenzamide]	low viability	even lower viability	resistant to growth inhibition	significant DNA damage														
N.N.[Cl][Pt][Cl] [cisplatin]					decreased with increasing doses of cisplatin	not reduced significantly	significantly more refractory	an even greater effect on the reduction in viability	not able to be repaired	high levels of DNA damage	growth suppression in a dose dependent manner	slightly reduce growth rate	reduced in a dose dependent manner	more resistant	significant decrease in viability	significantly reduced the viability	partially reduced; also recorded: no significant DNA damage remained	considerable DNA damage
